Patent US20060069132A1, “Azolecarboxamide herbicides” (priority 2004, published 2006)

Assays:
[1] = test system: Surinam grass; test: Test E pre-/postemergence herbicide test; assay type: in vivo, Urochloa decumbens
Summary of the method: (§1)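 Ratings from 0 (no effect) to 100 (complete control) were assigned by visual comparison with untreated plants 12 to 14 days after application. Test chemicals, formulated with surfactant in a non-phytotoxic solvent blend, were applied to soil after planting or to foliage of 2–18 cm plants.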

[2] = test system: downy bromegrass; test: Test C postemergence herbicide test; assay type: in vivo, Bromus tectorum
Summary of the method: (§2)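 Visual rating, 0 (no effect) to 100 (complete control), vs. controls at 12–14 d in greenhouse. Postemergence: 1–4-leaf plants, 2–18 cm. Paddy: flooded, barnyardgrass at 2-leaf stage.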

[3] = test system: common ragweed; test: Test E pre-/postemergence herbicide test; assay type: in vivo, Ambrosia elatior
Summary of the method: as §1

[4] = test system: common mallow; test: Test E pre-/postemergence herbicide test; assay type: in vivo, Malva sylvestris
Summary of the method: as §1

[5] = test system: johnsongrass; test: Test E pre-/postemergence herbicide test; assay type: in vivo, Sorghum halepense
Summary of the method: as §1

[6] = test system: tropical spiderwort; test: Test E pre-/postemergence herbicide test; assay type: in vivo, Commelina benghalensis
Summary of the method: as §1

[7] = test system: windgrass; test: Test C postemergence herbicide test; assay type: in vivo, Apera spica-venti
Summary of the method: as §2

[8] = test system: common purslane; test: Test E pre-/postemergence herbicide test; assay type: in vivo, Portulaca oleracea
Summary of the method: as §1

[9] = test system: bermudagrass; test: Test E pre-/postemergence herbicide test; assay type: in vivo, Cynodon dactylon
Summary of the method: as §1

[10] = test system: annual bluegrass; test: Test E pre-/postemergence herbicide test; assay type: in vivo, Poa annua
Summary of the method: as §1

[11] = test system: itchgrass; test: Test E pre-/postemergence herbicide test; assay type: in vivo, Rottboellia cochinchinensis
Summary of the method: as §1

[12] = test system: dallisgrass; test: Test E pre-/postemergence herbicide test; assay type: in vivo, Paspalum dilatatum
Summary of the method: as §1

[13] = test system: blackgrass; test: Test C postemergence herbicide test; assay type: in vivo, Alopecurus myosuroides
Summary of the method: as §2

[14] = test system: quackgrass; test: Test E pre-/postemergence herbicide test; assay type: in vivo, Elytrigia repens
Summary of the method: as §1

[15] = Preemergence, 62 g ai/ha, scale 0 to 100
[16] = Preemergence, 125 g ai/ha, scale 0 to 100
[17] = Preemergence, 500 g ai/ha, scale 0 (no effect) to 100 (complete control)
[18] = Postemergence, 500 g ai/ha, scale 0 to 100
[19] = Postemergence, 250 g ai/ha, scale 0 to 100, 0 no effect, 100 complete control
[20] = postemergence, 125 g ai/ha, scale 0 to 100
[21] = postemergence, 62 g ai/ha, scale 0 to 100
[22] = Preemergence, 125 g ai/ha, scale 0 (no effect) to 100 (complete control)
[23] = Preemergence, 250 g ai/ha, scale 0 (no effect) to 100 (complete control)
[24] = Postemergence, 250 g ai/ha, scale 0 to 100

CCNC(=O)c1cccc(NC(=O)c2cc(C(C)(C)C)nn2CC)n1 [Compound 144]
Plant response rating, Surinam Grass [1, 15]: 10 | Plant response rating, Surinam Grass [1, 16]: 50 | Plant response rating, Surinam Grass [1, 17]: 70 | Bromegrass, Downy plant response rating [2, 18]: 40 | Plant response rating, Bromegrass, Downy [2, 19]: 40 | Plant response rating, Bromegrass, Downy [2, 20]: 40 | Plant response rating, Bromegrass, Downy [2, 21]: 20 | Plant response rating, Ragweed [3, 15]: 0 | Plant response rating, Ragweed [3, 22]: 30 | Plant response rating, Ragweed [3, 23]: 40 | Plant response rating, Ragweed [3, 17]: 40 | Plant response rating, Mallow [4, 15]: 60 | Plant response rating, Mallow [4, 22]: 60 | Plant response rating, Mallow [4, 23]: 70 | Plant response rating, Mallow [4, 17]: 95 | Plant response rating, Johnsongrass [5, 15]: 30 | Plant response rating, Johnsongrass [5, 22]: 50 | Plant response rating, Johnsongrass [5, 23]: 60 | Plant response rating, Johnsongrass [5, 17]: 60 | Plant response rating, Spiderwort [6, 15]: 60 | Plant response rating, Spiderwort [6, 22]: 60 | Plant response rating, Spiderwort [6, 23]: 60 | Plant response rating, Spiderwort [6, 17]: 100 | Windgrass plant response rating [7, 18]: 70 | Plant response rating, Windgrass [7, 19]: 60 | Plant response rating, Windgrass [7, 20]: 60 | Plant response rating, Windgrass [7, 21]: 50 | Plant response rating, Purslane [8, 15]: 0 | Plant response rating, Purslane [8, 22]: 20 | Plant response rating, Purslane [8, 23]: 90 | Plant response rating, Purslane [8, 17]: 100 | Plant response rating, Bermudagrass [9, 15]: 50 | Plant response rating, Bermudagrass [9, 22]: 80 | Plant response rating, Bermudagrass [9, 23]: 85 | Plant response rating, Bermudagrass [9, 17]: 90 | Plant response rating, Bluegrass [10, 15]: 80 | Plant response rating, Bluegrass [10, 22]: 90 | Plant response rating, Bluegrass [10, 23]: 100 | Plant response rating, Bluegrass [10, 17]: 100 | Plant response rating, Itchgrass [11, 15]: 20 | Plant response rating, Itchgrass [11, 22]: 70 | Plant response rating, Itchgrass [11, 23]: 70 | Plant response rating, Itchgrass [11, 17]: 75 | Plant response rating, Dallisgrass [12, 15]: 0 | Plant response rating, Dallisgrass [12, 22]: 30 | Plant response rating, Dallisgrass [12, 23]: 60 | Plant response rating, Dallisgrass [12, 17]: 80 | Blackgrass plant response rating [13, 18]: 40 | Plant response rating, Blackgrass [13, 19]: 40 | Plant response rating, Blackgrass [13, 20]: 30 | Plant response rating, Blackgrass [13, 21]: 30 | Plant response rating, Quackgrass [14, 15]: 10 | Plant response rating, Quackgrass [14, 22]: 30 | Plant response rating, Quackgrass [14, 23]: 70 | Plant response rating, Quackgrass [14, 17]: 80

CCc1nn(C(C)(C)C)cc1C(=O)Nc1cc(C(=O)N(C)C)ccc1F [Compound 222, N-[5-[(dimethylamino)carbonyl]-2-fluorophenyl]-1-(1,1-dimethylethyl)-3-ethyl-1H-pyrazole-4-carboxamide]
Plant response rating, Surinam Grass [1, 24]: 80 | Plant response rating, Surinam Grass [1, 16]: 90 | Plant response rating, Surinam Grass [1, 17]: 100 | Plant response rating, Surinam Grass [1, 20]: 80 | Plant response rating, Surinam Grass [1, 21]: 50 | Plant response rating, Ragweed [3, 24]: 70 | Plant response rating, Ragweed [3, 15]: 30 | Plant response rating, Ragweed [3, 16]: 85 | Plant response rating, Ragweed [3, 23]: 95 | Plant response rating, Ragweed [3, 17]: 95 | Plant response rating, Ragweed [3, 20]: 60 | Plant response rating, Ragweed [3, 21]: 20 | Plant response rating, Mallow [4, 24]: 60 | Plant response rating, Mallow [4, 15]: 70 | Plant response rating, Mallow [4, 16]: 80 | Plant response rating, Mallow [4, 23]: 95 | Plant response rating, Mallow [4, 17]: 95 | Plant response rating, Mallow [4, 20]: 60 | Plant response rating, Mallow [4, 21]: 50 | Plant response rating, Johnsongrass [5, 24]: 60 | Plant response rating, Johnsongrass [5, 15]: 70 | Plant response rating, Johnsongrass [5, 16]: 80 | Plant response rating, Johnsongrass [5, 23]: 90 | Plant response rating, Johnsongrass [5, 17]: 100 | Plant response rating, Johnsongrass [5, 20]: 60 | Plant response rating, Johnsongrass [5, 21]: 10 | Plant response rating, Spiderwort [6, 24]: 60 | Plant response rating, Spiderwort [6, 17]: 95 | Plant response rating, Spiderwort [6, 20]: 40 | Plant response rating, Purslane [8, 24]: 60 | Plant response rating, Purslane [8, 15]: 70 | Plant response rating, Purslane [8, 16]: 100 | Plant response rating, Purslane [8, 23]: 100 | Plant response rating, Purslane [8, 17]: 100 | Plant response rating, Purslane [8, 20]: 30 | Plant response rating, Purslane [8, 21]: 10 | Plant response rating, Bermudagrass [9, 18]: 80 | Plant response rating, Bermudagrass [9, 24]: 80 | Plant response rating, Bermudagrass [9, 15]: 80 | Plant response rating, Bermudagrass [9, 16]: 100 | Plant response rating, Bermudagrass [9, 23]: 100 | Plant response rating, Bermudagrass [9, 17]: 100 | Plant response rating, Bermudagrass [9, 20]: 80 | Plant response rating, Bermudagrass [9, 21]: 60 | Plant response rating, Bluegrass [10, 18]: 90 | Plant response rating, Bluegrass [10, 24]: 90 | Plant response rating, Bluegrass [10, 15]: 90 | Plant response rating, Bluegrass [10, 16]: 100 | Plant response rating, Bluegrass [10, 23]: 100 | Plant response rating, Bluegrass [10, 17]: 100 | Plant response rating, Bluegrass [10, 20]: 80 | Plant response rating, Bluegrass [10, 21]: 60 | Plant response rating, Itchgrass [11, 24]: 70 | Plant response rating, Itchgrass [11, 15]: 75 | Plant response rating, Itchgrass [11, 16]: 95 | Plant response rating, Itchgrass [11, 23]: 95 | Plant response rating, Itchgrass [11, 17]: 95 | Plant response rating, Itchgrass [11, 20]: 60 | Plant response rating, Itchgrass [11, 21]: 60 | Plant response rating, Dallisgrass [12, 18]: 85 | Plant response rating, Dallisgrass [12, 24]: 85 | Plant response rating, Dallisgrass [12, 15]: 50 | Plant response rating, Dallisgrass [12, 16]: 80 | Plant response rating, Dallisgrass [12, 23]: 100 | Plant response rating, Dallisgrass [12, 17]: 100 | Plant response rating, Dallisgrass [12, 20]: 60 | Plant response rating, Dallisgrass [12, 21]: 30 | Plant response rating, Quackgrass [14, 18]: 85 | Plant response rating, Quackgrass [14, 24]: 80 | Plant response rating, Quackgrass [14, 15]: 10 | Plant response rating, Quackgrass [14, 16]: 80 | Plant response rating, Quackgrass [14, 23]: 100 | Plant response rating, Quackgrass [14, 17]: 100 | Plant response rating, Quackgrass [14, 20]: 75 | Plant response rating, Quackgrass [14, 21]: 30

CCc1nn(C(C)C)nc1C(=O)Nc1cccc(C(=O)N2CCCCC2)c1 [Compound 385]
Plant response rating, Surinam Grass [1, 16]: 20 | Plant response rating, Ragweed [3, 15]: 0 | Plant response rating, Ragweed [3, 16]: 0 | Plant response rating, Ragweed [3, 23]: 0 | Plant response rating, Mallow [4, 15]: 10 | Plant response rating, Mallow [4, 16]: 10 | Plant response rating, Mallow [4, 23]: 20 | Plant response rating, Johnsongrass [5, 15]: 10 | Plant response rating, Johnsongrass [5, 16]: 10 | Plant response rating, Johnsongrass [5, 23]: 30 | Plant response rating, Spiderwort [6, 16]: 0 | Plant response rating, Spiderwort [6, 23]: 0 | Plant response rating, Purslane [8, 15]: 100 | Plant response rating, Purslane [8, 16]: 100 | Plant response rating, Purslane [8, 23]: 100 | Plant response rating, Bermudagrass [9, 15]: 20 | Plant response rating, Bermudagrass [9, 16]: 60 | Plant response rating, Bermudagrass [9, 23]: 60 | Plant response rating, Bluegrass [10, 15]: 0 | Plant response rating, Bluegrass [10, 16]: 10 | Plant response rating, Bluegrass [10, 23]: 30 | Plant response rating, Itchgrass [11, 15]: 20 | Plant response rating, Itchgrass [11, 16]: 20 | Plant response rating, Itchgrass [11, 23]: 20 | Plant response rating, Dallisgrass [12, 15]: 10 | Plant response rating, Dallisgrass [12, 16]: 30 | Plant response rating, Dallisgrass [12, 23]: 50 | Plant response rating, Quackgrass [14, 15]: 10 | Plant response rating, Quackgrass [14, 16]: 20 | Plant response rating, Quackgrass [14, 23]: 30

CCc1nn(C(C)C)nc1C(=O)Nc1cccc(C(=O)N(C)CC)c1 [Compound 386]
Plant response rating, Surinam Grass [1, 16]: 80 | Plant response rating, Ragweed [3, 16]: 20 | Plant response rating, Ragweed [3, 23]: 60 | Plant response rating, Mallow [4, 16]: 60 | Plant response rating, Mallow [4, 23]: 70 | Plant response rating, Johnsongrass [5, 16]: 75 | Plant response rating, Johnsongrass [5, 23]: 80 | Plant response rating, Spiderwort [6, 16]: 10 | Plant response rating, Spiderwort [6, 23]: 70 | Plant response rating, Purslane [8, 16]: 100 | Plant response rating, Purslane [8, 23]: 100 | Plant response rating, Bermudagrass [9, 16]: 80 | Plant response rating, Bermudagrass [9, 23]: 95 | Plant response rating, Bluegrass [10, 16]: 60 | Plant response rating, Bluegrass [10, 23]: 95 | Plant response rating, Itchgrass [11, 16]: 70 | Plant response rating, Itchgrass [11, 23]: 70 | Plant response rating, Dallisgrass [12, 16]: 70 | Plant response rating, Dallisgrass [12, 23]: 75 | Plant response rating, Quackgrass [14, 16]: 80 | Plant response rating, Quackgrass [14, 23]: 90
